In brackets after ≈: the same amount, converted by molar mass.
Conditions: buffer; pH 7.4; 200.0 µM

SMILES	solubility kinetic [µg/mL]
O=C(Nc1ccccc1)c1ccco1	> 28.1
COc1cc(NC(=O)COC(=O)CC2CC3CCC2C3)cc(OC)c1 (stereo not given)	14.6 (≈ 42 µM)
COc1cc(C(=O)NC(C)C2CC3CCC2C3)cc(OC)c1OC (stereo not given)	9.8 (≈ 29.4 µM)
CCOc1ccc(NC(=O)NC2CCS(=O)(=O)C2)cc1 (stereo not given)	> 44.8
CCN=C1S/C(=C\c2cc(Cl)c(OC)c(OC)c2)C(=O)N1CC	0.8 (≈ 2.25 µM)
CC(C)S(=O)(=O)c1csc(C(=O)Nc2ccc(F)cc2)c1N	13.6 (≈ 39.7 µM)
CC1CN(C(=S)Nc2ccc(Cl)cc2)CC(C)O1 (stereo not given)	> 42.7
O=C(O)C(=O)Nc1nc(-c2ccc3c(c2)OCCO3)cs1	> 45.9
O=C(COC(=O)C1CC1)NCc1ccc(Cl)cc1Cl	41.9 (≈ 139 µM)
O=S(=O)(NC1CCSc2ccccc21)c1ccc(Cl)nc1 (stereo not given)	11.6 (≈ 34 µM)
O=C(Nc1cc(C(F)(F)F)ccc1N1CCOCC1)c1cnccn1	1.1 (≈ 3.12 µM)
O=C1NC2(CCCCCC2)C(=O)N1Cc1ccccc1F	26 (≈ 89.6 µM)
CCOC(=O)c1cc(-c2c(Cl)cccc2Cl)no1	12.1 (≈ 42.3 µM)
COc1ccc(Br)cc1/C=C/C(=O)OCC(=O)NCCc1ccc(S(N)(=O)=O)cc1	13.8 (≈ 27.7 µM)
Cc1ccc(C(=O)Nc2sc3c(c2C(=O)O)CCC(C)C3)o1 (stereo not given)	> 47.9
Cc1ccc(NC(=O)c2cccs2)cc1NC(=O)c1ccc(F)cc1	2 (≈ 5.64 µM)
Cn1cccc1C1CCCN1CC(=O)Nc1ccc(C(N)=O)cc1 (stereo not given)	> 49
CC(OC(=O)CC1CCCCC1)C(=O)Nc1cccc(C#N)c1 (stereo not given)	37.1 (≈ 118 µM)
Cc1cc(/C=C(\C#N)C(=O)N2CCOCC2)c(C)n1C1CCCC1	32.9 (≈ 100 µM)
Cc1cc(C(=O)NCCN2CCOCC2)c2ccccc2n1	> 44.9
O=C(NC(=S)N1CCCCCC1)c1cccc([N+](=O)[O-])c1	> 46.1
CC(C)(C)CN1CCN(CC#Cc2ccccc2)CC1CCO (stereo not given)	> 47.2
Cc1ccc(CN2CCN(Cc3ccncc3)CC2CCO)o1 (stereo not given)	34.3 (≈ 109 µM)
O=C(c1ccc(F)cc1F)C1CCN(c2ccc([N+](=O)[O-])cn2)CC1	1.4 (≈ 4.03 µM)

SMILES	solubility kinetic [µg/mL]
COc1ccccc1C(=O)NNC(=O)C(=O)NC(C)C	> 41.9
COc1ccsc1C(=O)NCCN1CCOCC1	39.7 (≈ 147 µM)
CC(=O)c1cccc(NC(=S)NCCc2ccc(Cl)cc2)c1	4.1 (≈ 12.3 µM)
CS(=O)(=O)c1ccc2nc(NC(=O)C3CC3)sc2c1	25.3 (≈ 85.4 µM)
O=C(Nc1nccs1)c1ccc2ccccc2n1	5.6 (≈ 21.9 µM)
CCOC(=O)c1cn2nc(Oc3ccccc3)ccc2n1	> 42.5
Cc1ccc(C)c(OCC(=O)Nc2ccccc2C(=O)NC2CC2)c1	0.9 (≈ 2.66 µM)
COC(=O)C1CSC(c2ccc(Cl)cc2)N1C(=O)c1ccccc1 (stereo not given)	34.1 (≈ 94.2 µM)
Clc1cccc(OCCCn2ccnc2)c1	> 35.5
CN(CC(=O)Nc1ccc(Cl)cc1)C(=O)CCC1CCCC1	0.4 (≈ 1.24 µM)
CC(=O)C1=C(O)C(=O)N(c2ccc(O)cc2)C1c1ccc([N+](=O)[O-])cc1 (stereo not given)	> 53.1
CCCc1cc(=O)[nH]c(SCc2nc3ccccc3o2)n1	> 45.2
O=C(N/N=C/c1ccccn1)c1ccncc1	> 33.9
O=C(CSc1ccccn1)NCc1ccc2c(c1)OCO2	> 45.4
CCOc1cc(/C=C\[N+](=O)[O-])ccc1OCC(=O)N1CCOCC1	24.5 (≈ 72.8 µM)
CCNc1nc(NC(C)C)nc(N(C#N)CC(=O)OC)n1	> 44
Cc1cc(N2CCN(C(=O)c3cccs3)CC2)c(F)cc1[N+](=O)[O-]	1.5 (≈ 4.29 µM)
Cc1cccc(C)c1OCCCCN1CCCCC1.O=C(O)C(=O)O	45.4
COc1cc2sc(C)nc2c2ccccc12	2.9 (≈ 12.6 µM)
CNC(=S)NCc1ccc2[nH]c(C)cc2c1	> 35
Cc1ccccc1NC(=S)N1CCCCCC1	> 37.3
COc1cc(C(=O)N2CCCc3ccccc32)c([N+](=O)[O-])cc1OC	> 51.4
CCc1ccc(NC(=O)N[C@H](C(=O)O)C(C)CC)cc1 (stereo not given in full)	> 41.8
Clc1ccc(Cn2ccnc2)cn1	24.2 (≈ 125 µM)

SMILES	solubility kinetic [µg/mL]
COc1ccccc1NC(=O)N1CCOCC1	> 35.4
COc1ccc(NC(=O)c2cc(-c3cccs3)on2)cc1	0.3 (≈ 0.999 µM)
CN(C)C(=S)Nc1ccc(Cc2ccncc2)cc1	36.5 (≈ 134 µM)
Cc1cc(C)c(C#N)c(SCCN2CCOCC2)n1	> 41.6
CCCCn1c(=O)[nH]c(=O)c2c1nc(-c1cccc(OC)c1)n2C	3.1 (≈ 9.44 µM)
O=C(NCCc1nnc2ccccn12)c1cccs1	> 40.8
Nc1ccc([As](=O)(O)O)cc1	> 32.6
O=c1ccnc(SCCc2ccccc2)[nH]1	> 34.8
Cc1ccc(-c2nc(-c3ccncc3)no2)cc1Cl	< 0.2
CC(=O)c1ccccc1OC(=O)COc1ccc([N+](=O)[O-])cc1	> 47.3
O=C(O)c1cc(S(=O)(=O)N2CCOCC2)c[nH]1	> 39
COc1cc(OC)cc(C(=O)NC2CC3CCC(C2)N3C)c1 (stereo not given)	38.4 (≈ 126 µM)
Cc1ccc(OCC(O)CNC(C)c2ccccc2)cc1C.Cl (stereo not given)	45.9
O=C(COC(=O)c1ccccn1)Nc1cccc2ccccc12	> 45.9
CC(=O)c1ccc(S(=O)(=O)NC2CCCCCCC2)cc1	45.1 (≈ 146 µM)
CS(=O)(=O)c1ccc([C@@H](O)[C@@H](CO)NC(=O)C(Cl)Cl)cc1	> 53.4
COc1ccc(NC(=O)CCC(=O)N2CCOCC2)c([N+](=O)[O-])c1	> 50.6
CCOC(=O)/C(N=Nc1ccc(C(=O)O)cc1[N+](=O)[O-])=C(\C)O	> 48.5
O=C(O/N=C(/c1ccccc1)c1ccncc1)c1cccc(F)c1	2.1 (≈ 6.56 µM)
Cc1cccc(NC(=O)NNC(=O)c2ccccn2)c1	> 40.5
O=C(NCCc1ccccc1)c1ccc2[nH]c(=O)c(=O)[nH]c2c1	> 46.4
Cc1cccc(C(=O)Nc2sc3c(c2C(=O)O)CCC3)c1	> 45.2
O=C(NCCCc1ccccc1)c1ccc([N+](=O)[O-])cc1Cl	9.2 (≈ 28.9 µM)
O=C(CCn1c(=S)oc2ccccc21)NC1CCCCC1	1.6 (≈ 5.26 µM)

SMILES	solubility kinetic [µg/mL]
CCCC1CC(C(=O)Nc2ccccc2)C(=O)O1 (stereo not given)	33 (≈ 133 µM)
COC(=O)c1sc(=S)n(Cc2ccccc2)c1C	7.1 (≈ 25.4 µM)
O=C(OCC(=O)N1CCc2ccccc2C1)c1ccc(O)cc1	4.5 (≈ 14.5 µM)
N#Cc1ccc(OCC(=O)NNC(=S)NC(=O)C2CC2)cc1	> 47.8
O=c1cc([O-])n(C2CCCCCC2)c(=O)[nH]1.[NH4+]	30
O=C(Nc1scc(-c2ccccc2)c1C(=O)O)c1ccccc1F	> 51.2
Cc1ccc(C)c(S(=O)(=O)NCCN2CCOCC2)c1.Cl	> 50.2
Cc1noc(C)c1-c1nc(CSc2ccccc2)no1	0.8 (≈ 2.78 µM)
CC1(c2ccccc2)NC(=O)N(CC(=O)Nc2ccc3c(c2)CCC3)C1=O (stereo not given)	3.8 (≈ 10.5 µM)
Cc1onc(-c2ccccc2)c1CNC(=O)Nc1cccc(Cl)c1	1.8 (≈ 5.27 µM)
O=C(NCC1CCCO1)c1ccc(NC(=O)c2cc(F)c(F)cc2Cl)cc1 (stereo not given)	5.3 (≈ 13.4 µM)
COc1ccc(C(=O)NCC(=O)OCc2ccccc2F)cc1	47.6 (≈ 150 µM)
CCN(CC)C(=O)COc1c(-c2ccco2)oc2ccccc2c1=O	> 51.2
Cc1ccc(NC(=S)NCCSc2ccc(Cl)cc2)cc1	< 0.4
C=C(c1ccccc1Cl)[n+]1ccccc1.F[B-](F)(F)F	> 45.5
CCOC(=O)c1csc(NC(=O)c2ccc(OCC)cc2)n1	0.8 (≈ 2.5 µM)
Cn1ccnc1SCC(=O)Nc1ccc2c(c1)OCCO2	> 45.8
CC(C)N(C(=O)c1ccc(-c2ccccc2F)cc1)C(C)C	23.4 (≈ 78.2 µM)
COc1ccc(-c2cc(-c3ccccc3)c(C#N)c(SCC(=O)O)n2)cc1	> 56.5
O=C(NCc1cccnc1)Nc1cccc(C(F)(F)F)c1	> 44.3
O=C(CCCNC(=O)c1ccc(Cl)cc1)Nc1ncccc1O	> 50.1
O=C(CN1C(=O)NC2(CCc3ccccc32)C1=O)NCc1ccc(Cl)cc1 (stereo not given)	> 57.6
Cc1ccc(/C=C/C(=O)O)cc1S(=O)(=O)Nc1ccc(C(=O)O)cc1	42.4 (≈ 117 µM)
CC(C)CNC(=O)COCc1cc(-c2ccc3c(c2)OCO3)on1	> 49.9

SMILES	solubility kinetic [µg/mL]
CC(=O)Nc1ccc(NC(=O)C2c3ccccc3Oc3ccccc32)cc1	1.1 (≈ 3.07 µM)
COc1ccc2oc(C(=O)OCC(=O)N3CC(C)OC(C)C3)c(C)c2c1 (stereo not given)	51.6 (≈ 143 µM)
Cc1cccc(NC(=O)CSc2nncn2-c2ccccn2)c1	> 48.8
CN1CCCC(OC(=O)c2ccccc2Br)C1.Cl (stereo not given)	> 50.2
Cn1c(=O)c2c(nc(N3CCOCC3)n2C/C=C/c2ccccc2)n(C)c1=O	51.9 (≈ 136 µM)
OC(CNCc1cccs1)c1ccccc1 (stereo not given)	> 35
Cc1cc(C)nc(SCC(=O)c2ccc(F)cc2)n1	38.5 (≈ 139 µM)
CCCNC(=O)CSc1nccn1Cc1ccc(OC)cc1	> 47.9
COCC(=O)N(Cc1cc2cc(C)ccc2[nH]c1=O)c1cccc(C)c1C	12.3 (≈ 33.7 µM)
O=C(NCCc1ccccc1)c1cccc(N2CCCC2=O)c1	> 46.3
COc1cc(NC(=O)C2C3CCC(O3)C2C(=O)O)cc(OC)c1 (stereo not given)	> 48.2
COc1ccc(NC(=O)C#Cc2ccccc2)cc1OC	37.6 (≈ 134 µM)
COc1ccc(COC(=O)CN2C(=O)NC3(CC(C)CC(C)(C)C3)C2=O)cc1F (stereo not given)	5.1 (≈ 12.5 µM)
C=C(C)c1cccc(C(C)(C)NC(=O)NCc2ccncc2)c1	> 46.4
O=C(CCc1ccccc1)Nc1cccnc1Cl	35.1 (≈ 135 µM)
CN(C(=S)Nc1ccc(Oc2ccccc2)cc1)c1ccc(O)cc1	> 52.6
Cc1ccccc1-c1nnc(SCCC(=O)N2CCOCC2)o1	> 50
C=C(C)n1c(=O)n(Cc2ccc(C)cc2)c2ccccc21	16.3 (≈ 58.6 µM)
CN(c1ccccc1)c1nc(N)c([N+](=O)[O-])c(N2CCOCC2)n1	47.6 (≈ 144 µM)
CCN1CCN(C(=O)/C=C/c2ccc(C)cc2)CC1	> 38.8
O=C(COC(=O)c1ccccc1Cl)Nc1ccc2[nH]c(=O)[nH]c2c1	23.3 (≈ 67.4 µM)
O=C(NNC1CC(=O)N(c2ccccc2)C1=O)c1cccnc1 (stereo not given)	> 46.5
CCCNC(=O)[C@H](C)NC(=O)c1ccc(Br)cc1	> 47
COC(=O)Nc1ccc(S(=O)(=O)N2CCCC(C(=O)NCC3CCCO3)C2)cc1 (stereo not given)	> 63.8
